Six compounds from BindingDB's records for doi:10.1021/jm00394a010 (University of Minnesota, 1987) can be followed below.

The term Ki denotes the dissociation constant of the complex between target and ligand, obtained from inhibition or displacement.

A short description of the assay: Binding affinity of Opioid receptor delta 1 by the displacement of delta-selective [3H]DSLET from brain membrane preparations.

Where a SMILES comes first, the peptide text is derived from it. Side-chain parts run from the residue outwards. The star is where a group is joined. X1 = CN1CC[C@]23c4c5ccc(O)c4O[C@H]2[C@@H](N*)CC[C@@]3(O)C1C5

For the compound `CC(C)C[C@H](NC(=O)[C@H](Cc1ccccc1)NC(=O)CNC(=O)[C@H](CCC(=O)NCC(=O)NCC(N)=O)NC(=O)[C@@H](N)Cc1ccc(O)cc1)C(=O)O` (H-YE([Gly-Gly-NH2])GFL-OH), the Ki was 88 nM.
Compound `CC(=O)NCC(=O)NCC(=O)N[C@H]1CC[C@@]2(O)C3Cc4ccc(O)c5c4[C@@]2(CCN3C)[C@H]1O5` [1N-[10,17-dihydroxy-4-methyl-(13R,17S)-12-oxa-4-azapentacyclo[9.6.1.01,13.05,17.07,18]octadeca-7(18),8,10-trien-14-ylcarbamoylmethyl]-2-methylcarboxamidoacetamide] registered a Ki of 181 nM.
For `CC(=O)N[C@H]1CC[C@@]2(O)C3Cc4ccc(O)c5c4[C@@]2(CCN3C)[C@H]1O5` [N-[(1S,13R,14S,17S)-10,17-dihydroxy-4-methyl-12-oxa-4-azapentacyclo[9.6.1.0^{1,13}.0^{5,17}.0^{7,18}]octadeca-7(18),8,10-trien-14-yl]acetamide], affinity was put at a Ki of 163 nM.
As to `CC(C)C[C@H](NC(=O)[C@H](Cc1ccccc1)NC(=O)CNC(=O)[C@H](CCC(=O)N[C@H]1CC[C@@]2(O)C3Cc4ccc(O)c5c4[C@@]2(CCN3C)[C@H]1O5)NC(=O)[C@@H](N)Cc1ccc(O)cc1)C(=O)O` [oxymorphamine- and enkephalin-containing ligand 1] (H-YE(X1)GFL-OH), the Ki was determined as 26 nM. This Ki is about 6.3-fold lower than that of the compound before.
On to `CC(C)C[C@H](NC(=O)[C@H](Cc1ccccc1)NC(=O)CNC(=O)[C@H](CCC(=O)NCC(=O)NCC(=O)N[C@H]1CC[C@@]2(O)C3Cc4ccc(O)c5c4[C@@]2(CCN3C)[C@H]1O5)NC(=O)[C@@H](N)Cc1ccc(O)cc1)C(=O)O` [oxymorphamine- and enkephalin-containing ligand 2] (H-YE([Gly-Gly-X1])GFL-OH), for which the Ki was determined as 51 nM. This Ki is about 2-fold higher than that of the compound before.
Compound H-YQGFL-OH yielded a Ki of 47 nM.
